Patent publication US20220347144A1, “COMPOSITIONS AND METHODS FOR PREVENTING AND/OR REDUCING WEIGHT GAIN AND ASSOCIATED CONDITIONS” (University of Virginia Patent Foundation, priority 2019, published 2022)

Experiments:
Assay type in all cases: in vivo, mouse
PPARα = assay: Liver transcript analysis by qRT-PCR; conditions: HFD+NA
Experimental: (§1) Transcript analysis. RNA was isolated from mouse liver by manual homogenization in TRIzol reagent (Invitrogen, Carlsbad, Calif., United States of America) following the manufacturer's instructions. Total RNA underwent DNase I treatment (New England Biolabs, Ipswich, Mass., United States of America) and cDNA was made using the ISCRIPT™ brand cDNA Synthesis Kit (Bio-Rad Laboratories, Hercules, Calif., United States of America). Quantitative real-time PCR was carried out using Bio-Rad SYBR® green probes (PPARα Bio-Rad Assay ID qMmuCID0005156; SIRT1 Bio-Rad Assay ID qMmuCID0015511; PGC1α Bio-Rad Assay ID qMmuCID0006032). The TATA binding protein (Bio-Rad Assay ID qMmuCID0040542) gene was used to normalize target gene abundance. Biological samples were run in triplicate.

SIRT1 = assay: Liver transcript analysis by qRT-PCR; conditions: HFD+NA
Experimental: as §1

PGC1α = assay: Liver transcript analysis by qRT-PCR; conditions: HFD+NA
Experimental: as §1

C57Bl/6J mice [1] = assay: Average food consumption over 12 weeks
Experimental: (§2) Animals. Animal experiments were approved by the Animal Care and Use Committee of the University of Virginia (Charlottesville, Va., United States of America). C57Bl/6J mice were obtained from Jackson Laboratories (Bar Harbor, Me., United States of America). Mice were group housed in standard cages with up to five mice per cage with a 12 hour dark/light cycle. All mice were weighed once per week. Weekly food consumption was measured, with the amount consumed per cage averaged amongst the mice in the cage. Body composition was determined by use of an ECHOMRI™-100H Body Composition Analyzer (EchoMRI LLC, Houston, Tex., United States of America).

C57Bl/6J mice [2] = assay: Fecal caloric content by bomb calorimetry
Experimental: For determination of energy expenditure, respiratory exchange ratios, and activity, mice were placed in an Oxymax metabolic chamber systems (Comprehensive Laboratory Animal Monitoring System, CLAMS, from Columbus Instruments (Columbus, Ohio, United States of America). Oxygen consumption (V02) and carbon dioxide production (VCO2) were determined for each mouse every 18 minutes over 72 hours with ambulatory activity assessed every minute over this same time period. Only the last two complete light and dark cycles (spanning 48 hours) were used for data analysis. Feces was collected from these studies and shipped to the Mouse Metabolic Phenotyping Core at the University of Texas Southwestern for bomb calorimetry analysis using a Parr 6200 Isoperibol Calorimeter (Parr Instrument Company, Moline, Ill., United States of America).

C57Bl/6J mice [3] = assay: Liver ceramide and lipid composition by LC-MS/MS in mice on control or high fat diets with or without nervonic acid
Experimental: as §2
Diets. Diets were obtained from Research Diets (New Brunswick, N.J., United States of America). The low fat chow was D12450Ji (10 kcal % fat) and the high fat chow was D12492 (60 kcal % fat). These two chows were reformulated by replacing a portion of dietary fat with an ethyl ester of nervonic acid from Nu-Chek Prep (Elysian, Minn., United States of America) to produce isocaloric diets with nervonic acid at 6 g per kg of diet (0.6%). For the three most prevalent fatty acids in these diets: C16 comprised 14.4%, 11.7%, 18.5%, and 18.1%; C18:1 comprised 27.4%, 22.8%, 32%, and 31.4%; and C18:2 comprised 39.6%, 36.2%, 26.9%, and 26.5% of the fatty acid composition of the Cnt, Cnt+NA, HFD, and HFD+NA diets, respectively. Mice were started on diets at ˜8 weeks of age and given ad libitum access.
Sphingolipid and acylcarnitine measurements by liquid chromatography-mass spectrometry. Sphingolipids were analyzed as described previously (Wijesinghe et al., 2010) for FIG. 1B or with modifications described herein. Liver samples from rats fed a low or high fat diet were obtained from Scot Kimball's laboratory at the Pennsylvania State University (Hershey, Pa.). Mouse liver samples were analyzed with modifications as described previously (Pearson et al., 2020). For FIGS. 1A and 5D, liver homogenates were subjected to lipid extraction and subjected to liquid chromatography-electrospray ionization mass spectrometry was performed on an I-class Acquity with a 2.1 mm×10 cm C18 CSH […] particle size column coupled to an in-line TQ-S mass spectrometer from Waters Corporation (Milford, Mass., United States of America).

C57Bl/6J mice [4] = assay: Observation of overt toxicities in animals fed a NA-enriched diet
C57Bl/6J mice [5] = assay: Fasting and random-fed blood glucose; conditions: for fasting blood glucose / random-fed blood glucose: HFD+NA versus HFD, 8 weeks on diets
Experimental: (§3) Insulin Tolerance Test (ITT) and Glucose Tolerance Test (GTT) and analysis of blood glucose and plasma insulin. ITT and GTT were performed as described in Lansey et al., 2012. Briefly, for ITT, random-fed mice were given an intraperitoneal injection (IP) of insulin (0.75 U/kg in 0.9% NaCl). Blood glucose levels were determined by a glucometer (Contour Next EZ Blood Glucose Monitoring System, Bayer, Leverkusen, Germany) at the indicated time points after injection. For GTT, mice were fasted for 16 hours prior to testing. D-Glucose, prepared the day before, was administered via an IP injection (1 g/kg), and blood glucose levels were determined by a glucometer at the indicated time points after injection. Plasma insulin levels were determined using a STELLUX® brand Chemi Rodent Insulin ELISA kit (Cat. No. 80-INSMR-CHO1; APLCO, Salem, N.H., United States of America) or an Ultrasensitive Rat/Mouse Insulin ELISA kit, Low Range Assay (Cat. No. 90060; Crystal Chem, Downers Grove, Ill., United States of America). The luminescence assay was conducted using a VICTOR2 Plate Reader (Perkin Elmer, Waltham, Mass., United States of America).

C57Bl/6J mice [6] = assay: Glucose Tolerance Test (GTT); conditions: HFD+NA versus HFD, 10 weeks on diets
Experimental: as §3

## (Z)-tetracos-15-enoic acid [NA]
PPARα
  PPARα mRNA levels in liver: increased
SIRT1
  SIRT1 mRNA levels in liver: restored
PGC1α
  PGC1α mRNA levels in liver: restored
C57Bl/6J mice [1]; HFD+NA versus HFD, 12 weeks
  average food consumption: similar
C57Bl/6J mice [1]; control+NA versus control
  food consumption: not significantly different
C57Bl/6J mice [2]; HFD+NA versus HFD
  fecal caloric content: No differences
C57Bl/6J mice [2]; control+NA versus control
  fecal caloric content: No differences
C57Bl/6J mice [3]; HFD-fed mice, NA-supplemented diet
  hepatic C20 and C22-ceramides: back to control levels
C57Bl/6J mice [3]; NA-enriched control and HFDs
  C24:1-lysophosphatidylcholine in liver: elevated
  diacylglyceride C16:0/C24:1 in liver: elevated
  diacylglyceride C18:0/C24:1 in liver: elevated
  diacylglyceride C18:1/C24:1 in liver: elevated
  diacylglyceride C18:2/C24:1 in liver: elevated
C57Bl/6J mice [3]; between diet groups with and without NA
  total amounts of ceramides in liver: consistent between diet groups
C57Bl/6J mice [3]; both diets, NA 0.6%
  C24:1-hexosylceramide in liver: increasing
  C24:1-sphingomyelin in liver: increasing
C57Bl/6J mice [3]; normal and HFD fed groups, NA 0.6% by diet weight
  other ceramides C20-C26 in liver: concomitant decreases
C57Bl/6J mice [3]; normal and HFD fed groups, ethyl ester of NA 0.6% by diet weight
  C24:1-ceramides in liver: increases
C57Bl/6J mice [4]
  overt toxicities (ruffled fur, anorexia, cachexia, skin tenting, skin ulcerations, diarrhea, death): No overt toxicities
C57Bl/6J mice [5]
  fasting blood glucose: significant reductions
  random-fed blood glucose: significant reductions
C57Bl/6J mice [5]; listed as nervonic acid
  fasting blood glucose: significant reduction
  random-fed blood glucose: significant reduction
C57Bl/6J mice [5]; HFD+NA versus control diet, random fed or fasted
  blood glucose levels: not significantly different
C57Bl/6J mice [5]; control with NA diet versus control
  blood glucose levels: No significant differences
C57Bl/6J mice [6]
  glucose tolerance (glucose load, area under the curve): significantly improved glucose tolerance
C57Bl/6J mice [6]; listed as nervonic acid
  glucose tolerance (glucose load, area under the curve): reduction in the glucose load
